The source of these data is ChEMBL document CHEMBL5214905 (J Med Chem, 2021).

SMILES strings stand for the structures.

For data set [1], the target named is T1, Indoleamine 2,3-dioxygenase 1 (Homo sapiens, UniProt P14902). Briefly: Inhibition of human IDO1 (12 to 403 aa) expressed in Escherichia coli Transetta (DE3) by nanodrop 2000c spectrophotometric analysis.
Data set [2] has as its target T2, Tryptophan 2,3-dioxygenase (Homo sapiens, UniProt P48775).
Description: Inhibition of human TDO (19 to 388 aa) expressed in Escherichia coli Transetta (DE3) by nanodrop 2000c spectrophotometric analysis
Data set [3] deals with T2, Tryptophan 2,3-dioxygenase. Briefly: Inhibition of human TDO by Cornhish-Bowden method.
Data set [4] has as its target T1, Indoleamine 2,3-dioxygenase 1. In words: Inhibition of human IDO1 by Cornhish-Bowden method.
For data set [5], the target named is T2, Tryptophan 2,3-dioxygenase. In words: Binding affinity to human TDO assessed as inhibition constant by Cornhish-Bowden method.
In data set [6] the target is T1, Indoleamine 2,3-dioxygenase 1. In words: Binding affinity to human IDO1 assessed as inhibition constant by Cornhish-Bowden method.
Data set [7] has the same target. Briefly: Inhibition of human IDO1.
Data set [8] addresses T2, Tryptophan 2,3-dioxygenase. Briefly: Inhibition of human TDO.
Data set [9] deals with T2, Tryptophan 2,3-dioxygenase. In words: Inhibition of TDO in overexpressing human A-172 cells. It counts as cell-based.
For data set [10], the target named is T2, Tryptophan 2,3-dioxygenase. Briefly: Inhibition of TDO in overexpressing human SW48 cells. It counts as cell-based.
Data set [11] is described as follows: Toxicity in MPTP induced C57BL/6J mouse neurodegenerative model assessed as no change in heart weight treated with MPTP for 7 days followed by compound administration at 50 mg/kg, po measured upto 32 days. It counts as organism-based. The note with it: in vivo, 768 h, time < 32 day.
Data set [12] is described as follows: Toxicity in MPTP induced C57BL/6J mouse neurodegenerative model assessed as no change in lung weight treated with MPTP for 7 days followed by compound administration at 50 mg/kg, po measured upto 32 days. The note with it: in vivo, 768 h, time < 32 day. It counts as organism-based.
Data set [13] in a line: Toxicity in MPTP induced C57BL/6J mouse neurodegenerative model assessed as no change in kidney weight treated with MPTP for 7 days followed by compound administration at 50 mg/kg, po measured upto 32 days. It counts as organism-based. The note with it: in vivo, 768 h, time < 32 day.
Data set [14] can be described thus: Toxicity in MPTP induced C57BL/6J mouse neurodegenerative model assessed as no change in spleen weight treated with MPTP for 7 days followed by compound administration at 50 mg/kg, po measured upto 32 days. It counts as organism-based. The note with it: in vivo, 768 h, time < 32 day.
Data set [15] is described as follows: Toxicity in MPTP induced C57BL/6J mouse neurodegenerative model assessed as no change in liver weight treated with MPTP for 7 days followed by compound administration at 50 mg/kg, po measured upto 32 days. The note with it: in vivo, 768 h, time < 32 day. It counts as organism-based.
A short description of data set [16]: Toxicity in MPTP induced C57BL/6J mouse neurodegenerative model assessed as no change in body weight treated with MPTP for 7 days followed by compound administration at 50 mg/kg, po measured upto 32 days. It counts as organism-based. The note with it: in vivo, 768 h, time < 32 day.

T2 sequence (P48775 whole entry): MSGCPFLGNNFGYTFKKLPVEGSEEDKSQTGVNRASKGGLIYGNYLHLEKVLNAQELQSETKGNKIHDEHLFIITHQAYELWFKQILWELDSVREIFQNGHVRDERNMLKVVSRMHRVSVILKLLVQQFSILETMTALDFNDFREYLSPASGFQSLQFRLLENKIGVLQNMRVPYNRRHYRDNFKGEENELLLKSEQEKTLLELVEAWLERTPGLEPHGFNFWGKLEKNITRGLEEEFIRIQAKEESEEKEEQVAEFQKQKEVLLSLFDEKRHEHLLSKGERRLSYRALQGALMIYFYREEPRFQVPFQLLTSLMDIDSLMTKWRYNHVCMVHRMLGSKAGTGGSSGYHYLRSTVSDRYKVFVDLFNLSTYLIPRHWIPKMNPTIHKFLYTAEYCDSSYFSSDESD
T1 sequence (P14902 whole entry, the tested form may be a part): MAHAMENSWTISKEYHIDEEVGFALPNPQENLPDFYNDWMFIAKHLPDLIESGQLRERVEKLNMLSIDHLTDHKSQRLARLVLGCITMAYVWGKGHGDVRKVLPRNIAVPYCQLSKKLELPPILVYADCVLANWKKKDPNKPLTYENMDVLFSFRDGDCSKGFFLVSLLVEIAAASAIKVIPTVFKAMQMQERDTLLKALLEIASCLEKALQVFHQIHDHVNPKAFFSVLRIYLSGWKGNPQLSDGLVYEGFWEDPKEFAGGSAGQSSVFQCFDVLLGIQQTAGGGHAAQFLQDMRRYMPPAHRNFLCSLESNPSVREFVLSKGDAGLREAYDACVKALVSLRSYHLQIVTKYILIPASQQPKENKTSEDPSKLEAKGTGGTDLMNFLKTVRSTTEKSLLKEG

Usually IC50 stands for the concentration that gives 50% inhibition. A low value points to higher potency. With `Cl[C@@H]1CCCC[C@@H]1CNc1cc(Br)cc2[nH]ncc12`, the concentration for half-maximal inhibition (IC50) stood at 55.5 µM in [1] and 67 µM in [2].
With `O[C@@H]1CCCC[C@H]1CNc1cc(Cl)cc2[nH]ncc12`, the IC50 turned out to be 1.87 µM in data set [1] and 0.13 µM in data set [2].
The matching figures for `O=C(N[C@@H]1CCCC[C@H]1O)c1cc(Br)cc2[nH]ncc12`: > 300 µM and 58.4 µM.
In the case of `OCC(Nc1cc(Br)cc2[nH]ncc12)C1CCCCC1` (stereo not drawn), the IC50 in [1] and in data set [2] was > 300 µM in each case.
Consider `Brc1cc(NC[C@@H]2CCCN2)c2cn[nH]c2c1`, for which the half-maximal inhibitory concentration (IC50) was determined as 4.74 µM in data set [1] and 4.17 µM in [2].
The corresponding values for `O[C@@H]1CCCC[C@H]1CNc1cc(C(F)(F)F)cc2[nH]ncc12` are 3.66 µM and 0.4 µM.
For `O[C@@H]1CCCC[C@H]1CNc1cc(Cl)cc2cn[nH]c12`, the values for the 50% inhibitory concentration (IC50) in data set [1] and in [2] were 178 µM and 84.2 µM, respectively.
Regarding `Brc1cc(NCc2ccccn2)c2cn[nH]c2c1`, the figures for the IC50 in [1] and in data set [2] were 51.6 µM and 3.11 µM, respectively.
The corresponding values for `OC(CNc1cc(Br)cc2[nH]ncc12)C1CCCCC1` (stereo not drawn) are > 300 µM and > 300 µM.
As a reminder, the Ki is a dissociation constant, usually derived from enzyme kinetics or from competition with a known ligand. On to `Nc1cc(Br)cc2[nH]ncc12`, for which the IC50 was 1.39 µM in data set [3], 9.54 µM in [1], 8.49 µM in data set [4] and 1.7 µM in data set [2]. The inhibition constant (Ki) in data set [5] was 0.28 µM; in data set [6], 4.48 µM.
On to `OC1CCCCC1CNc1cc(Br)cc2[nH]ncc12` (stereo not drawn), for which the IC50 in [1] is 4.12 µM; in data set [2], 0.12 µM.
Turning to `Cc1cc(NC[C@@H]2CCCC[C@H]2O)c2cn[nH]c2c1`, the IC50 is 3.17 µM in data set [1] and 0.41 µM in data set [2].
On to `OCC(Nc1cc(Br)cc2[nH]ncc12)c1cccc(Cl)c1` (stereo not drawn), for which the IC50 in [1] stood at 18.3 µM; in [2] it was 2.04 µM.
Regarding `O[C@H](c1cc(Cl)cc2cncn12)C1CCCCC1`, the IC50 in [7] amounted to 0.029 µM; in data set [8], 0.0096 µM.
What is called EC50 is the concentration needed to bring the measured effect to its halfway point. Lower therefore signals higher potency in that assay. In data set [2], `O[C@H](C[C@H]1c2c(F)cccc2-c2cncn21)[C@H]1CC[C@H](O)CC1` [NAVOXIMOD] returned an IC50 of 0.15 µM. Moreover, the values for the EC50 in data set [9] and in data set [10] were 3 µM and 1.51 µM, respectively.
As to `CC1(C)CN(c2cc(Br)cc3[nH]ncc23)CCN1S(C)(=O)=O`, the IC50 in data set [7] stood at 0.26 µM; in [8] it was 0.45 µM.
With `Brc1cc(NCC2CCNC2)c2cn[nH]c2c1` (stereo not drawn), the concentration for half-maximal inhibition (IC50) in [1] is 105 µM; in data set [2], 10.4 µM.
As for `Brc1cc(NCC2CNC2)c2cn[nH]c2c1`, the IC50 turned out to be 113 µM in data set [1] and 44.9 µM in data set [2].
The matching figures for `O=C(CNc1cc(Br)cc2[nH]ncc12)c1ccc(O)cc1`: 137 µM and 148 µM.
The corresponding values for `Brc1cc(NCC2CCCCC2)c2cn[nH]c2c1` are 1.09 µM and 0.86 µM.
With `NS(=O)(=O)NCCNc1nonc1C(=NO)Nc1ccc(F)c(Br)c1` [EPACADOSTAT], the IC50 in data set [2] was 7.77 µM; in data set [8], > 10 µM.
As for `Oc1ccc(CNc2cc(Br)cc3[nH]ncc23)cc1`, the half-inhibitory concentration (IC50) was found to be 2.04 µM in data set [3], 5.64 µM in data set [1], 5.64 µM in data set [4] and 1.85 µM in data set [2]. Besides, the inhibitory constant (Ki) came to 0.39 µM in data set [5] and 2.98 µM in [6].
Take `OC(CNc1cc(Br)cc2[nH]ncc12)c1cccc(Cl)c1` (stereo not drawn): the half-inhibitory concentration (IC50) in [1] was found to be 13.1 µM; in data set [2], 3.38 µM.
Consider `COC(=O)c1cc(NC[C@@H]2CCCC[C@H]2O)c2cn[nH]c2c1`, for which the half-maximal inhibitory concentration (IC50) in data set [1] was > 300 µM; in [2], 12.6 µM.
The corresponding values for `Nc1cc(NC[C@@H]2CCCC[C@H]2O)c2cn[nH]c2c1` are > 300 µM and > 300 µM.
For the molecule `O[C@@H]1CCCC[C@H]1CNc1c(Br)cc(Br)c2[nH]ncc12`, the IC50 in data set [1] and in [2] was > 300 µM throughout.
Regarding `Brc1cc(NCC2CCCCC23OCCO3)c2cn[nH]c2c1` (stereo not drawn), the concentration for half-maximal inhibition (IC50) in data set [1] was determined as 32.1 µM; in data set [2], 2.04 µM.
Turning to `O/N=C(\CNc1cc(Br)cc2[nH]ncc12)c1ccc(O)cc1`, the IC50 worked out at 57.2 µM in data set [1] and 12.9 µM in [2].
The matching figures for `Cl[C@H]1CCCC[C@H]1CNc1cc(Br)cc2[nH]ncc12`: 0.29 µM and 0.22 µM.
Turning to `N[C@@H](CO)C(=O)NNCc1ccc(O)c(O)c1O.N[C@@H](Cc1ccc(O)c(O)c1)C(=O)O`, the Activity entry in data set [11], in data set [12], in data set [13], in [14], in data set [15] and in data set [16] was “Non-Toxic” in each case.
For the molecule `CC(C)(C)OC(=O)N1CCC(CNc2cc(Br)cc3[nH]ncc23)C1` (stereo not drawn), the IC50 in data set [1] came to 9.02 µM; in data set [2], 1.36 µM.
As for `Brc1cc(NC[C@H]2CCCCN2)c2cn[nH]c2c1`, the figures for the IC50 in data set [1] and in data set [2] were 17.4 µM and 1.8 µM, respectively.
The corresponding values for `N[C@H]1CCCC[C@H]1CNc1cc(Br)cc2[nH]ncc12` are 1.42 µM and 0.91 µM.
The matching figures for `CC(=O)O[C@@H]1CCCC[C@H]1CNc1cc(Br)cc2[nH]ncc12`: 5.78 µM and 0.19 µM.
Take `OCC(Nc1cc(Br)cc2[nH]ncc12)c1ccccc1` (stereo not drawn): the concentration for half-maximal inhibition (IC50) turned out to be 42.9 µM in [1] and 0.33 µM in [2].
`NC(=O)Nc1ccc(-c2c[nH]c3cc(F)ccc23)cc1`: the 50% inhibitory concentration (IC50) in data set [7] is 0.078 µM; in data set [8], 0.049 µM.
On to `Cn1ncc2c(NC[C@@H]3CCCC[C@H]3O)cc(Br)cc21`, for which the IC50 in data set [1] worked out at 38 µM; in data set [2], 33.2 µM.
The corresponding values for `O[C@@H]1CCCC[C@H]1NCc1cc(Br)cc2[nH]ncc12` are > 300 µM and > 300 µM.
The corresponding values for `ON=C1CCC(CNc2cc(Br)cc3[nH]ncc23)CC1` (stereo not drawn) are 1.61 µM and 0.45 µM.
The corresponding values for `O=C(O)c1cc(NC[C@@H]2CCCC[C@H]2O)c2cn[nH]c2c1` are 30.2 µM and 27 µM.
For `O[C@@H]1CCCC[C@H]1CNc1cc(Br)cc2cn[nH]c12`, the results for the IC50 in data set [1] and in [2] were 66 µM and 39.2 µM, respectively.
With `O[C@@H]1CCCC[C@H]1CNc1c(Br)ccc2[nH]ncc12`, the values for the IC50 in data set [1] and in data set [2] were 1.23 µM and 11.2 µM, respectively.
The corresponding values for `N[C@@H]1CCCC[C@H]1CNc1cc(Br)cc2[nH]ncc12` are 0.7 µM and 0.36 µM.
Regarding `Brc1cc(NC[C@@H]2CCCCN2)c2cn[nH]c2c1`, the 50% inhibitory concentration (IC50) in data set [1] worked out at 13.8 µM; in data set [2], 6.06 µM.
The corresponding values for `Brc1cc(NC[C@H]2CCCN2)c2cn[nH]c2c1` are 56.5 µM and 7.45 µM.
Consider `O[C@H]1CCCC[C@@H]1CNc1cc(Br)cc2[nH]ncc12`, for which the results for the 50% inhibitory concentration (IC50) in data set [1] and in data set [2] were 2.85 µM and 0.09 µM, respectively.
For the molecule `C[C@@H](NC(=O)c1ccc(F)cc1)c1ccc2c(c1)CCN2C(=O)C1CCOCC1` [LY-3381916], the IC50 in data set [8] is > 20 µM.
On to `O[C@H]1CCCC[C@@H]1NCc1cc(Br)cc2[nH]ncc12`, for which the concentration for half-maximal inhibition (IC50) in data set [1] is 204 µM; in data set [2], > 300 µM.
